Our source for the Tg values is US12564554B2, “Co-amorphous forms of beta-lactoglobulin and a drug substance” (DISPERSOME IP APS, priority 2019, dated 2026).

The data set in a line: mDSC measurement of the glass transition temperature (Tg). It is filed as physicochemical. As to conditions: freshly prepared, ball milled (Table 2). The procedure:
The mDSC thermograms of the samples were collected using a Discovery DSC (TA instruments, New Castle, USA) under a nitrogen gas flow of 50 ml/min. The samples containing Compound A, Compound B and IND were analysed at a heating rate of 2° C./min from 25° C. to 200° C., with an underlying modulation temperature amplitude of 0.2120° C. and a period of 40 s. For the remaining samples the same heating rate, amplitude and period were applied. Samples containing compounds APA, BDQ, RIF and VNX were heated from 25° C. to 250° C., and samples containing Compound RIT were heated from 0° C. to 170° C. A total of 4-8 mg sample powder was filled into aluminium Tzero pans and sealed with an aluminium Tzero lid. The glass transition temperature (Tg) was determined as the midpoint from the reversing heat flow signal.
Compound `CC(C)c1nc(CN(C)C(=O)N[C@H](C(=O)N[C@@H](Cc2ccccc2)C[C@H](O)[C@H](Cc2ccccc2)NC(=O)OCc2cncs2)C(C)C)cs1` [Pure amorphous RIT, ritonavir] displayed a Tg of 41.7 °C.

As to “bedaquiline fumarate [Pure amorphous BDQ]”, the Tg came out at 79.4 °C.

For `CO[C@H]1/C=C/O[C@@]2(C)Oc3c(C)c(O)c4c(O)c(c5c(nc6cc(C)ccn65)c4c3C2=O)NC(=O)/C(C)=C\C=C\[C@H](C)[C@H](O)[C@@H](C)[C@@H](O)[C@@H](C)[C@H](OC(C)=O)[C@@H]1C` [Pure amorphous RIF, rifaximin], the Tg was found to be 194.4 °C.

`CNC(=O)c1ccc(N2C(=S)N(c3cnc(C#N)c(C(F)(F)F)c3)C(=O)C23CCC3)cc1F` [Pure amorphous APA, Apalutamide] returned a Tg of 97.4 °C.
